Assay results: the NIST ThermoML archive (doi:10.1021/je500594z)
± gives the expanded uncertainty stated by the source.

Experiment: xn = mol fraction of the nth substance listed
Conditions: 101 kPa, Liquid; for viscosity: Falling or rolling sphere viscometry; for speed of sound: Sing-around technique in a fixed-path interferometer; for mass density: Vibrating tube method

CCn1cc[n+](C)c1.O=S(=O)([N-]S(=O)(=O)C(F)(F)F)C(F)(F)F + CCO
Conditions	mass density [kg/m3]	speed of sound [m/s]	viscosity [mPa·s]
278.15 K, x1 = 0.051	946.21 ± 0.14	1201.4 ± 0.63	2.42 ± 0.02
278.15 K, x1 = 0.102	1052.67 ± 0.18	1199.9 ± 0.63	3.44 ± 0.03
278.15 K, x1 = 0.198	1191.39 ± 0.26	1210.6 ± 0.63	5.9 ± 0.05
278.15 K, x1 = 0.292	1281.48 ± 0.28	1224.4 ± 0.64	8.91 ± 0.07
278.15 K, x1 = 0.402	1356.04 ± 0.3	1239.1 ± 0.65	13.41 ± 0.11
278.15 K, x1 = 0.501	1405.04 ± 0.29	1250.3 ± 0.65	18.24 ± 0.14
278.15 K, x1 = 0.619	1449.8 ± 0.25	1261.2 ± 0.65	25.83 ± 0.2
278.15 K, x1 = 0.71	1476.96 ± 0.24	1268.1 ± 0.66	33.19 ± 0.26
278.15 K, x1 = 0.811	1502.1 ± 0.24	1274.8 ± 0.66	43.83 ± 0.34
278.15 K, x1 = 0.907	1521.68 ± 0.24	1280 ± 0.66	56.33 ± 0.23
278.15 K, x1 = 1	1538.23 ± 0.25	1284.9 ± 0.66	75.08 ± 1
298.15 K, x1 = 0.051	927.85 ± 0.14	1139.3 ± 0.61	1.57 ± 0.01
298.15 K, x1 = 0.102	1033.54 ± 0.17	1142.6 ± 0.61	2.16 ± 0.02
298.15 K, x1 = 0.198	1171.44 ± 0.26	1158.2 ± 0.61	3.47 ± 0.03
298.15 K, x1 = 0.292	1261.14 ± 0.27	1174.5 ± 0.62	5.02 ± 0.04
298.15 K, x1 = 0.402	1335.52 ± 0.29	1190.9 ± 0.63	7.16 ± 0.06
298.15 K, x1 = 0.501	1384.32 ± 0.28	1203 ± 0.63	9.66 ± 0.08
298.15 K, x1 = 0.619	1429.22 ± 0.24	1214.6 ± 0.64	13.22 ± 0.1
298.15 K, x1 = 0.71	1456.41 ± 0.23	1222 ± 0.64	16.41 ± 0.13
298.15 K, x1 = 0.811	1481.59 ± 0.23	1229 ± 0.64	20.91 ± 0.16
298.15 K, x1 = 0.907	1501.19 ± 0.23	1234.4 ± 0.64	25.67 ± 0.2
298.15 K, x1 = 1	1517.76 ± 0.24	1240.1 ± 0.64	32.02 ± 0.25
318.15 K, x1 = 0.051	909.21 ± 0.14	1079.4 ± 0.58	1.09 ± 0.01
318.15 K, x1 = 0.102	1014.18 ± 0.17	1087.3 ± 0.59	1.46 ± 0.01
318.15 K, x1 = 0.198	1151.39 ± 0.25	1107.7 ± 0.6	2.27 ± 0.02
318.15 K, x1 = 0.292	1240.83 ± 0.27	1126.5 ± 0.6	3.21 ± 0.03
318.15 K, x1 = 0.402	1315.11 ± 0.29	1144.5 ± 0.61	4.59 ± 0.04
318.15 K, x1 = 0.501	1363.99 ± 0.28	1157.6 ± 0.62	5.85 ± 0.05
318.15 K, x1 = 0.619	1408.9 ± 0.24	1170 ± 0.62	7.84 ± 0.06
318.15 K, x1 = 0.71	1436.15 ± 0.22	1177.9 ± 0.62	9.67 ± 0.08
318.15 K, x1 = 0.811	1461.4 ± 0.22	1185.3 ± 0.62	11.96 ± 0.09
318.15 K, x1 = 0.907	1481.05 ± 0.23	1191.2 ± 0.63	14.35 ± 0.11
318.15 K, x1 = 1	1497.65 ± 0.23	1196.6 ± 0.63	17.32 ± 0.14
338.15 K, x1 = 0.051	889.98 ± 0.15	1020.7 ± 0.56	0.79 ± 0.01
338.15 K, x1 = 0.102	994.4 ± 0.17	1033.2 ± 0.57	1.05 ± 0.01
338.15 K, x1 = 0.198	1131.14 ± 0.25	1058.3 ± 0.58	1.6 ± 0.01
338.15 K, x1 = 0.292	1220.47 ± 0.26	1079.7 ± 0.59	2.23 ± 0.02
338.15 K, x1 = 0.402	1294.8 ± 0.28	1099.7 ± 0.59	3.16 ± 0.03
338.15 K, x1 = 0.501	1343.74 ± 0.27	1113.9 ± 0.6	3.99 ± 0.03
338.15 K, x1 = 0.619	1388.81 ± 0.23	1127.3 ± 0.6	5.23 ± 0.04
338.15 K, x1 = 0.71	1416.16 ± 0.21	1135.6 ± 0.61	6.35 ± 0.05
338.15 K, x1 = 0.811	1441.5 ± 0.21	1143.7 ± 0.61	7.7 ± 0.06
338.15 K, x1 = 0.907	1461.23 ± 0.22	1150 ± 0.61	9.11 ± 0.07
338.15 K, x1 = 1	1477.86 ± 0.22	1155.8 ± 0.61	10.82 ± 0.08
